The values that follow come from ChEMBL document CHEMBL4651402, “Screening of ~5500 FDA-approved drugs and clinical candidates for anti-SARS-CoV-2 activity” (2021).

Where only a bound is given, the exact number is not on record here.

The first assay deals with SARS-CoV-2. Kind of assay: microbe, parasite or virus in culture. As to conditions: Severe acute respiratory syndrome coronavirus 2, Vero C1008, 48 h.
With `FC(F)(F)c1ccc2c(c1)N(CCCN1CCN(C3CC3)CC1)c1ccccc1S2` [CYCLOPHENAZINE], the IC50 was more than 20 µM.
Compound `CCOc1ccc2c3c1O[C@H]1[C@@H](O)C=C[C@H]4[C@@H](C2)N(C)CC[C@@]341` [ETHYLMORPHINE] registered an IC50 of more than 20 µM.
On the same count and under the same terms, as for `CCOC(=O)[C@@](C)(N)Cc1ccc(O)c(O)c1` [METHYLDOPATE], the figure is more than 20 µM; as for `COc1ccc2cccc(CCNC(C)=O)c2c1` [AGOMELATINE], more than 20 µM; as for `CC(C)NCC(O)c1ccccc1Cl` (configuration not stated) [CLORPRENALINE], more than 20 µM.
On the same count and under the same terms, as for `CC(CN(C)C)CN1c2ccccc2OCOc2ccc(Cl)cc21` (configuration not stated) [TRABOXOPINE], the figure is more than 20 µM.
Same read-out and setting: the result for `Clc1ccc(N2CCN(C/C=C/c3ccccc3)CC2)nn1` [LORCINADOL] reads more than 20 µM.
As for `C[C@@]12C(=O)OC(=O)[C@]1(C)[C@H]1CC[C@@H]2O1` [CANTHARIDIN], the IC50 is more than 20 µM.
For `O=[N+]([O-])/N=C1\NCCN1Cc1ccc(Cl)nc1` [IMIDACLOPRID], the IC50 was more than 20 µM.
On the same count and under the same terms, the result for `CCOC(=O)C1=C(C)NC(C)=C(C(=O)OC)C1c1cccc([N+](=O)[O-])c1` (configuration not stated) [NITRENDIPINE] reads more than 20 µM; that for `CC(C)OC(=O)[C@H](C)N[P@@](=S)(OC[C@H]1O[C@@H](n2ccc(=O)[nH]c2=O)[C@](C)(O)[C@@H]1O)Oc1ccccc1`, more than 20 µM; that for `Cc1c(O)c(=O)ccn1C` [DEFERIPRONE], more than 20 µM.
`CC[C@H](C)C(=O)O[C@H]1CCC=C2C=C[C@H](C)[C@H](CC[C@@H]3C[C@@H](O)CC(=O)O3)[C@H]21` [MEVASTATIN]: the IC50 was more than 20 µM.
Still for that read-out and setting: the result for `NC(=O)c1ccc(I)c([N+](=O)[O-])c1` [INIPARIB] reads more than 20 µM.
For the compound `O=C(O)c1cccc(-c2noc(-c3ccccc3F)n2)c1`, the IC50 was more than 20 µM.
Compound `O=C(CN1CCN(Cc2ccc3c(c2)OCO3)CC1)N1c2ccccc2Sc2ccccc21` [FENOVERINE] registered an IC50 of more than 20 µM.
Compound `CO[C@@]1(NC(=O)C2SC(=C(C(N)=O)C(=O)O)S2)C(=O)N2C(C(=O)O)=C(CSc3nnnn3C)CS[C@@H]21` (some centres not stated) [CEFOTETAN] registered an IC50 of more than 20 µM.
Take `NC[C@H]1O[C@H](O[C@H]2[C@H](O[C@@H]3O[C@H](CO)[C@@H](O)[C@H]3O)[C@@H](O)[C@H](N)C[C@@H]2N)[C@H](N)[C@@H](O)[C@@H]1O` [RIBOSTAMYCIN]: the IC50 is more than 20 µM.
For the compound `COC(=O)C(N)CS` (configuration not stated) [MECYSTEINE], the IC50 is more than 20 µM.
`COc1cccc2cc(-c3nc([C@H]4CC[C@H](C(=O)O)CC4)n4ncnc(N)c34)[nH]c12` [OSI-027] displayed an IC50 of more than 20 µM.
On the same count and under the same terms, as for `N#Cc1c(Cl)c(Cl)c(Cl)c(C#N)c1Cl` [CHLOROTHALONIL], the figure is more than 20 µM.
For the compound `CC(C)(C)c1ccc(CSc2cnn(C(C)(C)C)c(=O)c2Cl)cc1` [PYRIDABEN], the IC50 is more than 20 µM.
The compound `O=C1CCC(c2ccccc2)(C2CCN(C/C=C/c3ccccc3)CC2)C(=O)N1` (configuration not stated) gave an IC50 of more than 20 µM.
Same read-out and setting: the result for `Cn1cnc([N+](=O)[O-])c1Sc1nc(N)nc2[nH]cnc12` [THIAMIPRINE] reads more than 20 µM; that for `COC(=O)C[C@](O)(CCCC(C)(C)O)C(=O)O[C@@H]1C(OC)=C[C@]23CCCN2CCc2cc4c(cc2[C@H]13)OCO4` [OMACETAXINE MEPESUCCINATE], more than 20 µM.
On the same count and under the same terms, the result for `CC1CC2C3CC(F)C4=CC(=O)C=CC4(C)C3C(O)CC2(C)C1C(=O)CO` (configuration not stated) reads more than 20 µM; that for `CN(C)CCN(Cc1ccc(Cl)cc1)c1ccccn1` [CHLOROPYRAMINE], more than 20 µM; that for `CC(C)OC(=O)C1(c2ccccc2)CCN(C)CC1` [PROPERIDINE], more than 20 µM.
`Cc1cccc(Cc2c[nH]cn2)c1C` [DETOMIDINE] yielded an IC50 of more than 20 µM.
The same measure, in the same setting: as for `Nc1cc(C(Cl)=C(Cl)Cl)c(S(N)(=O)=O)cc1S(N)(=O)=O` [CLORSULON], the figure is more than 20 µM; as for `CCC1(C)OC(=O)N(C)C1=O` (configuration not stated) [PARAMETHADIONE], more than 20 µM.

Still in this assay, the particulars now being: Severe acute respiratory syndrome coronavirus 2, Vero C1008, 48 h, read-out: pIC50 (converted).
Turning to `FC(F)(F)c1ccc2c(c1)N(CCCN1CCN(C3CC3)CC1)c1ccccc1S2` [CYCLOPHENAZINE], the IC50 is more than 20 µM.
The same measure, in the same setting: the result for `CCOc1ccc2c3c1O[C@H]1[C@@H](O)C=C[C@H]4[C@@H](C2)N(C)CC[C@@]341` [ETHYLMORPHINE] reads more than 20 µM.
On the same count and under the same terms, as for `CCOC(=O)[C@@](C)(N)Cc1ccc(O)c(O)c1` [METHYLDOPATE], the figure is more than 20 µM.
On the same count and under the same terms, as for `COc1ccc2cccc(CCNC(C)=O)c2c1` [AGOMELATINE], the figure is more than 20 µM; as for `CC(C)NCC(O)c1ccccc1Cl` (configuration not stated) [CLORPRENALINE], more than 20 µM; as for `CC(CN(C)C)CN1c2ccccc2OCOc2ccc(Cl)cc21` (configuration not stated) [TRABOXOPINE], more than 20 µM.
Regarding `Clc1ccc(N2CCN(C/C=C/c3ccccc3)CC2)nn1` [LORCINADOL], the IC50 was more than 20 µM.
Still for that read-out and setting: the result for `C[C@@]12C(=O)OC(=O)[C@]1(C)[C@H]1CC[C@@H]2O1` [CANTHARIDIN] reads more than 20 µM.
As to `O=[N+]([O-])/N=C1\NCCN1Cc1ccc(Cl)nc1` [IMIDACLOPRID], the IC50 was more than 20 µM.
Still for that read-out and setting: the result for `CCOC(=O)C1=C(C)NC(C)=C(C(=O)OC)C1c1cccc([N+](=O)[O-])c1` (configuration not stated) [NITRENDIPINE] reads more than 20 µM; that for `CC(C)OC(=O)[C@H](C)N[P@@](=S)(OC[C@H]1O[C@@H](n2ccc(=O)[nH]c2=O)[C@](C)(O)[C@@H]1O)Oc1ccccc1`, more than 20 µM.
Still for that read-out and setting: as for `Cc1c(O)c(=O)ccn1C` [DEFERIPRONE], the figure is more than 20 µM; as for `CC[C@H](C)C(=O)O[C@H]1CCC=C2C=C[C@H](C)[C@H](CC[C@@H]3C[C@@H](O)CC(=O)O3)[C@H]21` [MEVASTATIN], more than 20 µM; as for `NC(=O)c1ccc(I)c([N+](=O)[O-])c1` [INIPARIB], more than 20 µM.
As for `O=C(O)c1cccc(-c2noc(-c3ccccc3F)n2)c1`, the IC50 is more than 20 µM.
On the same count and under the same terms, as for `O=C(CN1CCN(Cc2ccc3c(c2)OCO3)CC1)N1c2ccccc2Sc2ccccc21` [FENOVERINE], the figure is more than 20 µM; as for `CO[C@@]1(NC(=O)C2SC(=C(C(N)=O)C(=O)O)S2)C(=O)N2C(C(=O)O)=C(CSc3nnnn3C)CS[C@@H]21` (some centres not stated) [CEFOTETAN], more than 20 µM; as for `NC[C@H]1O[C@H](O[C@H]2[C@H](O[C@@H]3O[C@H](CO)[C@@H](O)[C@H]3O)[C@@H](O)[C@H](N)C[C@@H]2N)[C@H](N)[C@@H](O)[C@@H]1O` [RIBOSTAMYCIN], more than 20 µM.
Take `COC(=O)C(N)CS` (configuration not stated) [MECYSTEINE]: the IC50 is more than 20 µM.
The same measure, in the same setting: as for `COc1cccc2cc(-c3nc([C@H]4CC[C@H](C(=O)O)CC4)n4ncnc(N)c34)[nH]c12` [OSI-027], the figure is more than 20 µM.
The same measure, in the same setting: as for `N#Cc1c(Cl)c(Cl)c(Cl)c(C#N)c1Cl` [CHLOROTHALONIL], the figure is more than 20 µM; as for `CC(C)(C)c1ccc(CSc2cnn(C(C)(C)C)c(=O)c2Cl)cc1` [PYRIDABEN], more than 20 µM; as for `O=C1CCC(c2ccccc2)(C2CCN(C/C=C/c3ccccc3)CC2)C(=O)N1` (configuration not stated), more than 20 µM.
On the same count and under the same terms, as for `Cn1cnc([N+](=O)[O-])c1Sc1nc(N)nc2[nH]cnc12` [THIAMIPRINE], the figure is more than 20 µM.
In the case of `COC(=O)C[C@](O)(CCCC(C)(C)O)C(=O)O[C@@H]1C(OC)=C[C@]23CCCN2CCc2cc4c(cc2[C@H]13)OCO4` [OMACETAXINE MEPESUCCINATE], the IC50 was more than 20 µM.
Still for that read-out and setting: as for `CC1CC2C3CC(F)C4=CC(=O)C=CC4(C)C3C(O)CC2(C)C1C(=O)CO` (configuration not stated), the figure is more than 20 µM; as for `CN(C)CCN(Cc1ccc(Cl)cc1)c1ccccn1` [CHLOROPYRAMINE], more than 20 µM; as for `CC(C)OC(=O)C1(c2ccccc2)CCN(C)CC1` [PROPERIDINE], more than 20 µM.
Same read-out and setting: the result for `Cc1cccc(Cc2c[nH]cn2)c1C` [DETOMIDINE] reads more than 20 µM.
Still for that read-out and setting: as for `Nc1cc(C(Cl)=C(Cl)Cl)c(S(N)(=O)=O)cc1S(N)(=O)=O` [CLORSULON], the figure is more than 20 µM; as for `CCC1(C)OC(=O)N(C)C1=O` (configuration not stated) [PARAMETHADIONE], more than 20 µM.
